Experimental data published in patent US6506937B2, “Substituted benzenesulfonylureas and -thioureas-processes for their preparation and their use as pharmaceuticals” (priority 1993, dated 2003).

Assays:
[1] = test system: papillary muscle of the guineapig; assay: Action potential duration on the papillary muscle of the guineapig; format: cell-based; conditions: test substance 2.2×10^−5 mol per liter, 30 minutes after the addition, repolarization degree of 95%; for APD95-HOE 234: action potential shortened by 1 μM potassium channel opener Hoe 234 (rilmakalim); for APD95-DEO: action potential shortened by 2-deoxyglucose (DEO)
Description: (1) Action potential duration on the papillary muscle of the guineapig:
ATP deficiency states such as are observed during ischemia in the cardiac muscle cell lead to a shortening of the duration of action potential. They are one of the causes of so-called reentry arrhythmias, which can cause sudden cardiac death. Opening of ATP-sensitive K channels by the reduction in ATP is a cause of this.
A standard microelectrode technique is used for measurement of the action potential. For this, guineapigs of both sexes are sacrificed by a blow to the head, the hearts are removed and the papillary muscles are separated out and suspended in an organ bath. The organ bath is flushed with Ringer solution (0.9% NaCl, 0.048% KCl, 0.024% CaCl2, 0.02% NaHCO3 and 0.1% glucose) and gassed with a mixture of 95% oxygen and 5% carbon dioxide at a temperature of 36° C. The muscle is stimulated via an electrode with rectangular pulses of 1 V and 1 ms duration and a frequency of 2 Hz. The action potential is conducted and recorded through a glass microelectrode, which is punctured intracellularly and filled with 3 mol KCl solution. The substances to be tested were added to the Ringer solution in a concentration of 2.2×10^−5 mol per liter. The action potential is shown in amplified form on an oscilloscope using a Hugo Sachs amplifier. The duration of the action potential is determined at a repolarization degree of 95% (APD95). Shortenings in action potential are caused either by addition of a 1 μM strength solution of the potassium channel opener Hoe 234 (rilmakalim) [W. Linz, E. Klaus, U. Albus, R. H. A. Becker, D. Mania, H. C. Englert, B. A. Schölkens Arzneimittelforechung/Drug Research, Volume 42 (II), 1992, pages 1180-1185] or by addition of 2-deoxyglucose (DEO). ATP deficiency states are caused in experimental physiology by 2-deoxyglucose by blockade of glucose meta-bolism. The action potential-shortening effect of these substances was prevented or reduced by the simultaneous dose of the test substances. The test substances were added to the bath solution as stock solutions in propanediol. The values stated relate to measurements 30 minutes after the addition. The APD95 in the presence of DEO or HOE 234 and in the absence of the test substance serves an a control.

[2] = test system: RINm5F cells; assay: Membrane potential on isolated β cells (RINm5F cells, whole cell patch clamp); format: cell-based; conditions: compound 10^−5 mol per liter, diazoxide (100 μmol) in bath, 34±1° C.
Description: (2) Membrane potential on isolated β cells:
The action mechanism of hypoglycemic sulfonylureas is clarified in rough outlines. The β cells of the pancreas are the target organ, where increased secretion of the hypoglycemic hormone insulin occurs. The release of insulin is controlled by the cell membrane potential. Glibenclamide causes depolarization of the cell membrane, which promotes insulin release via an increased in-flow of calcium ions. The extent of this depolarization of the call membrane ΔU was determined on RINm5F cells, a pancreas tumor cell line, for some of the compounds according to the invention. The action strength of a compound in this model predicts the extent of the hypoglycemic potential of this compound.
RINm5F cells were cultured at 37° C. in RPMI 1640 culture medium (flow), to which […] of glucose, 10% (volume/volume) of fetal calf serum, 2 mmol of glutamine and 50 μg/ml of gentamycin were added. For the studies, the cells were isolated by incubation (about 3 minutes) in a Ca^2+-free medium containing 0.25% of trypsin and stored on ice.
Isolated RINm5F cells were introduced into a Plexi-glas chamber on an inverse microscope fitted with a differential interference contrast lens. A fire-polished micropipette with an opening diameter of about 1 μm was placed on the cell with the aid of a micromanipulator under optical control (400-fold magnification). By applying a slight reduced pressure in the patch pipette, a high electrical seal was first produced between the glass and cell membrane, and was then broken open by increasing the reduced pressure of the membrane spot under the measurement pipette. The cell potential was recorded in this whole cell configuration with the aid of a patch clamp amplifier (L/M EPC 7) and was measured by applying a potential ramp to the whole cell current.
Solutions: The patch pipette was filled with KCl solution (in mmol): 140 KCl, 10 NaCl, 1.1 MgCl2, 0.5 EGTA, 1 Mg-ATP, 10 HEPES, pH=7.2, and the bath contained NaCl solution (in mmol): 140 NaCl, 4.7 KCl, 1.1 MgCl2, 2 CaCl2, 10 HEPES, pH=7.4. […]

| Compound | melting point [°C] | APD95-HOE 234 [1] | APD95-DEO [1] | ΔU (depolarization of the cell membrane) [2] |
| --- | --- | --- | --- | --- |
| CCc1ccc(CCNC(=O)c2cc(Cl)ccc2OC)cc1S(=O)(=O)NC(=O)NC | 207 | – | – | – |
| CNC(=O)NS(=O)(=O)c1cc(CCNC(=O)c2cc(Cl)ccc2OC)ccc1C [Example 4, 2-Methoxy-5-chloro-N-{5-[1-sulfonylamino-N-(methylaminocarbonyl)-2-methylphenyl]-ethyl}-benzamide] | – | 123 ± 15 (172 ± 18) ms | 110 ± 23 (180 ± 5) ms | 19 (−76) n = 3 mv |
| CNC(=S)NS(=O)(=O)c1cc(CCNC(=O)c2cc(F)ccc2OC)ccc1OC | 182 to 185 | – | – | – |
| CNC(=O)NS(=O)(=O)c1cc(CCCNC(=O)c2cc(Cl)ccc2OC)ccc1OC | 285 | – | – | – |
| CNC(=O)NS(=O)(=O)c1cc(CCNC(=O)c2cc(Cl)ccc2OC)ccc1OC [Example 1, 2-Methoxy-5-chloro-N-{5-[1-sulfonylamino-N-(methylaminocarbonyl)-2-methoxyphenyl]-ethyl}-benzamide] | – | 138 ± 3 (160 ± 20) ms | 107 ± 14 (155 ± 9) ms | 13 (−76) n = 6 mv |
| CCOc1ccc(CCNC(=O)c2cc(Cl)ccc2OC)cc1S(=O)(=O)NC(=O)NC | 190 to 195 | – | – | – |
| CCc1ccc(CCNC(=O)c2cc(Cl)ccc2OC)cc1S(=O)(=O)NC(=S)NC | 155 | – | – | – |
| CNC(=O)NS(=O)(=O)c1cc(CCNC(=O)c2cc(F)ccc2OC)ccc1OC | 199 to 200 | – | – | – |
| CNC(=S)NS(=O)(=O)c1cc(CCNC(=O)c2cc(Cl)ccc2OC)ccc1OC [Example 10, 2-Methoxy-5-chloro-N-{5-[1-sulfonylamino-N-(methylaminothiocarbonyl)-2-methoxyphenyl]-ethyl}-benzamide] | – | 137 ± 20 (150 ± 23) ms | 125 (175) ms | 11 (−79) n = 3 mv |
| CNC(=S)NS(=O)(=O)c1cc(CCNC(=O)c2cc(Cl)ccc2OC)ccc1C | 183 | – | – | – |
